Experimental data reported in patent US6623933B1 (priority 1999, dated 2003).
Where “and” joins values, the source holds several entries; their conditions need not be identical. Equal values may be shown once. Where a name gives a salt, the structure may show the parent alone.

How the values were obtained:
Format in all cases: cell-based
wild-type NR1a/NR2A = biological target: T1, wild-type NR1a/NR2A (Rattus norvegicus, UniProt P35439+Q00959); assay: NMDA-induced currents, Xenopus oocytes, Example 5; details: 100 uM steroid, 300 uM NMDA, 50 uM Glycine
T1 construct: expressed in transfected cells; host or cells: Xenopus laevis oocytes injected with in vitro transcribed mRNA
Experimental: (§1) Plasmids were linearized with appropriate restriction enzyme prior to in vitro transcription using the Message Machine kit (Ambion, Inc., Austin, Tex.).
Female, oocyte positive Xenopus laevis frogs were purchased from Xenopus I (Dexter, Mich). […] Oocytes were injected with 50 nL of RNA solutions using an electronic microinjector (Drummond Inc., Broomall, Pa.). […] The injected oocytes were used for experiments following 1-5 days of incubation in Barth's solution at 18-20° C.
The microelectrodes were fabricated with a programmed puller (Sutter Instrument Co., Calif.) from borosilicate glass capillaries and were filled with 3 M KCl solution. The resistance of filled microelectrodes was in the range of 1-3 MΩ. […] If not mentioned otherwise, during data acquisition oocytes were clamped at a holding potential of −70 mV. The membrane current was filtered at 500 Hz and sampled at 100 Hz. Drugs were applied using a gravity driven external perfusion system. The working ,volume of the recording chamber was 30 μl and the rate of the perfusion was 50 μl/sec. The drug application lasted 10 sec and was followed by a 60 sec wash. The data acquisition and external perfusion control were done using the SuperScopeII software package (GW Instruments, Mass.). All experiments were performed at room temperature (22-24° C.). […] The data are presented as mean±S.E.M. with number of experiments in parentheses.

NR1011/NR2B = biological target: T2, NR1011/NR2B (Rattus norvegicus, UniProt P35439+Q00960); assay: NMDA receptor currents in Ba-Ringer, Xenopus oocytes, Example 3
T2 construct: expressed in transfected cells; host or cells: Xenopus oocytes
T2 sequence (Q00960 27-1482, other chains not shown): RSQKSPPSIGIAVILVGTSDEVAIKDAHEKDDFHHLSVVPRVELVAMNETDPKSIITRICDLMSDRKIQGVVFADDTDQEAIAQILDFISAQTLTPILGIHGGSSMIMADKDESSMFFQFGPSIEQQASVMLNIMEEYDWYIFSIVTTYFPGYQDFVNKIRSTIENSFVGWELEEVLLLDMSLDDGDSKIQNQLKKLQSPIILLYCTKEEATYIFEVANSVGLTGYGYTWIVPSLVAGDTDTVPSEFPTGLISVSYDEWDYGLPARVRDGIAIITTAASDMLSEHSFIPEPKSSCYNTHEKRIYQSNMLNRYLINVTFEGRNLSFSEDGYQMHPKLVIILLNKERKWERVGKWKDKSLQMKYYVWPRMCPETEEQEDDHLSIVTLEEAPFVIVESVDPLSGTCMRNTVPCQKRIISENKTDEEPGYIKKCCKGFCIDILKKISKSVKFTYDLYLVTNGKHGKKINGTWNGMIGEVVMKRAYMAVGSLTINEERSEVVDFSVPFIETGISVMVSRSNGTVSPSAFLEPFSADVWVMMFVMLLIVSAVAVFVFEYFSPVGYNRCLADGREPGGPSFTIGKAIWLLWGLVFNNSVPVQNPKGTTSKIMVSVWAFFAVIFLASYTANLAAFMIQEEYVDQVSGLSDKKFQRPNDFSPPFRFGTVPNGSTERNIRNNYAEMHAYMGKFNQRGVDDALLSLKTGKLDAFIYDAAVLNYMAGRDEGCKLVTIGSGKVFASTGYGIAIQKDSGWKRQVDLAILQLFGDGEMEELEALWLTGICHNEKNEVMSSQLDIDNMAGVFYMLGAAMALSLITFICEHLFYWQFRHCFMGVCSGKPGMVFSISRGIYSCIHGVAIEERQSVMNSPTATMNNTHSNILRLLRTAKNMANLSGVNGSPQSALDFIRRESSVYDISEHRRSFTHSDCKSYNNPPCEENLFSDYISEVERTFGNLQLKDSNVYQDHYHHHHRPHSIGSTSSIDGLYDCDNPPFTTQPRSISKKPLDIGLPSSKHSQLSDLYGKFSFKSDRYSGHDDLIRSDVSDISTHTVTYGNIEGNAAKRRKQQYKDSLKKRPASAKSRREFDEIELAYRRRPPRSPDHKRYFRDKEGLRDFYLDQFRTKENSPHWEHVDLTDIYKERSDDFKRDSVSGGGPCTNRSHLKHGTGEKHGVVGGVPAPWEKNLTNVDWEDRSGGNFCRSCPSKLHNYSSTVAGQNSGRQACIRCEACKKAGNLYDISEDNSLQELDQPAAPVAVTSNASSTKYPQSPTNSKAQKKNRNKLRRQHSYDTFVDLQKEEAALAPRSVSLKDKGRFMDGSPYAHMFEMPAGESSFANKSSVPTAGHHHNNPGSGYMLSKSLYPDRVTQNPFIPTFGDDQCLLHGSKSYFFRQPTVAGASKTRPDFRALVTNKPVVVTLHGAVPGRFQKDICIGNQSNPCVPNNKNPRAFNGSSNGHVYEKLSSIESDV

NR1/NR2D = biological target: T3, NR1/NR2D (Rattus norvegicus, UniProt P35439+Q62645); assay: NMDA-induced membrane currents, Xenopus oocytes, Example 7
T3 construct: expressed in transfected cells; host or cells: Xenopus oocytes injected with mRNA
T3 sequence (Q62645 28-1323, other chains not shown): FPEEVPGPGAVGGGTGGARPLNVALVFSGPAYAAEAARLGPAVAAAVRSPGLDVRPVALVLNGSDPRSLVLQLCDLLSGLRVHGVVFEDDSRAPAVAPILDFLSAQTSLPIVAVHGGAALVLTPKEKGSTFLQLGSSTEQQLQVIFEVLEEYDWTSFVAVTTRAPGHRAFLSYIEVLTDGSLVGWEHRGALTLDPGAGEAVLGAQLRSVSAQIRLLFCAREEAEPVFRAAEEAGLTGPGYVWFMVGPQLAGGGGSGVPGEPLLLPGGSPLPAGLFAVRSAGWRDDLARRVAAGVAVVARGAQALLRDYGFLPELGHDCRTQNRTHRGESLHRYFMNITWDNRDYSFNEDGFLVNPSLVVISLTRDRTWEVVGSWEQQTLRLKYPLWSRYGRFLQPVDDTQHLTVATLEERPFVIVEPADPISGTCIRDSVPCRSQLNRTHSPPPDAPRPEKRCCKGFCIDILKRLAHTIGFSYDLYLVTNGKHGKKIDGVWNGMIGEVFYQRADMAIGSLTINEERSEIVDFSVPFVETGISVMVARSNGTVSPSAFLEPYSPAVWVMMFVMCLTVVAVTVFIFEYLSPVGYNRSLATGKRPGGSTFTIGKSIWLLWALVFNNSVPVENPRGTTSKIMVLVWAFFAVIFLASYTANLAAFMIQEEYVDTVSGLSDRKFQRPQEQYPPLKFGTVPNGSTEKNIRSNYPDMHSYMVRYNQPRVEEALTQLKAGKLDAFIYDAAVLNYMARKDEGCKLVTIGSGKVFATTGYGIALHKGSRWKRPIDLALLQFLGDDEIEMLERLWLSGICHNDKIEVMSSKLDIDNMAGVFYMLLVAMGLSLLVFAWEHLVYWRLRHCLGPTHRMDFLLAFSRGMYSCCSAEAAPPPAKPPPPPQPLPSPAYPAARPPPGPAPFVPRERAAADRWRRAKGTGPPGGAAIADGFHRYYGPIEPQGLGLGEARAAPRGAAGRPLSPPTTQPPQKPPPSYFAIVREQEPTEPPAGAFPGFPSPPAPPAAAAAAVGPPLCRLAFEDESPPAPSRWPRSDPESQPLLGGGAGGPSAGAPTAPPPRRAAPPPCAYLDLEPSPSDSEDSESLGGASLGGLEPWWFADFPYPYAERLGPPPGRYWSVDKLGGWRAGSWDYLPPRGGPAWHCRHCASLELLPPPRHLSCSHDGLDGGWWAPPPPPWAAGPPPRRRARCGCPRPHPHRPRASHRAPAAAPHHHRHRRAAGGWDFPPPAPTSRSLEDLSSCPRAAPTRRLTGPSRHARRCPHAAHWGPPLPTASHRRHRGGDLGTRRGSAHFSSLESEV
Experimental: as §1
Oocytes were injected with 50 nL of RNA solutions using an electronic microinjector (Drummond Inc., Broomall, Pa.). […] The injected oocytes were used for experiments following 1-5 days of incubation in Barth's solution at 18-20° C.
The microelectrodes were fabricated with a programmed puller (Sutter Instrument Co., Calif.) from borosilicate glass capillaries and were filled with 3 M KCl solution. The resistance of filled microelectrodes was in the range of 1-3 MΩ. […] If not mentioned otherwise, during data acquisition oocytes were clamped at a holding potential of −70 mV. The membrane current was filtered at 500 Hz and sampled at 100 Hz. Drugs were applied using a gravity driven external perfusion system. The working ,volume of the recording chamber was 30 μl and the rate of the perfusion was 50 μl/sec. The drug application lasted 10 sec and was followed by a 60 sec wash. The data acquisition and external perfusion control were done using the SuperScopeII software package (GW Instruments, Mass.). […] Peak or steady-state current measurements were normalized and expressed as a fraction of the peak or steady-state control current measurements, which were performed before and after application of every single consentration of agonist or steroid. […]

NR1100/NR2B = biological target: T4, NR1100/NR2B (Rattus norvegicus, UniProt P35439+Q00960); assay: NMDA receptor currents in Ba-Ringer, Xenopus oocytes, Example 3
T4 construct: expressed in transfected cells; host or cells: Xenopus oocytes injected with RNA
T4 sequence (Q00960 27-1482, other chains not shown): as the sequence (Q00960 27-1482, other chains not shown) above

NR1001/NR2A = NR1001/NR2A (Rattus norvegicus, UniProt P35439+Q00959); assay: NMDA-induced currents of NR1 splice variants, Xenopus oocytes, Example 4; set-up: expressed in transfected cells; host or cells: Xenopus oocytes injected with NR1001 and NR2A mRNA; details: NR1001/2A; 100 μM PS; 200 μM NMDA+10 μM glycine
Experimental: Overnight cultures (500 ml) of transformed bacterial cells were prepared in order to grow sufficient quantities for maxiprep isolation of the plasmid CDNA. Maxipreps were done using a Sorvall RC-5B ultracentrifuge, Qiagen columns and cDNA was quantitated with spectrophotometry (OD260 and OD260/ OD280 ratio). The resulting plasmid cDNA was linearized by digestion with an appropriate restriction enzyme that cleaves distal to the cDNA insert (XhoI for NR2A or NotI for NR1100, NR1000, NR1111, NR1011, NR1101, NR1001). […] The samples were stored at −20° C. until use.
In vitro transcription was performed using the Ambion mMessage mMachine kit with T7 (NR1100, NR1000, NR1111, NR1011, NR1101, NR1001) RNA polymerase. The reaction was assembled on ice and allowed to incubate at 37° C. for 1-2 hr. The resulting mRNA was precipitated (reaction termination) using lithium chloride/5 mM EDTA solution and dissolved in RNase-free H2O. The concentration (OD260) and OD260/OD280 ratio (should be more than 1.5) was determined by spectrophotometer. The yield of mRNA was generally 15-30 μg. mRNA was stored at −80° C. until use.
Intracellular recording microelectrodes were fabricated from 100 μl borosilicate glass disposable micropipettes using a 2-step protocol on a standard horizontal Flaming-Brown micropipette puller.

[1] = tested on: AMPA/kainate receptor (rat brain poly(A)+ RNA); assay: Kainate-evoked currents, Xenopus oocytes injected with rat brain poly(A)+ RNA

Compound | percent decrease in maximum inward current (wild-type NR1a/NR2A) [%] | PS Emax (NR1011/NR2B) | PS nHill (NR1011/NR2B) | inhibition of NMDA-induced membrane currents (NR1/NR2D; 100 μM PS, 10 μM NMDA, 10 μM glycine) [%] | maximum inhibition (NR1/NR2D; PS 0.5 to 200 μM) [%] | PS Emax (NR1100/NR2B) | PS nHill (NR1100/NR2B) | maximum relative current (MRC) (NR1001/NR2A) | onset of inhibition [1] [s] | reduction in kainate-evoked responses ([1]; 100 μM PS, 100 μM kainate) [%]
CC(=O)[C@H]1CC[C@H]2[C@@H]3CC[C@@H]4C[C@H](OS(=O)(=O)O)CC[C@]4(C)[C@H]3CC[C@]12C [3α5βS, 3α5β-pregnanolone sulfate] | 45.49±5.76 |  |  |  |  |  |  |  |  | 
pregnenolone sulfate [PS] |  | 0.78 ± 0.14 | 1.29 ± 0.19 | 29±2 | 70±6 | 1.02 ± 0.10 | 1.42 ± 0.11 | 1.73 and 1.72 | < 10 | 49±3
